# Measurements from ChEMBL document CHEMBL2062405, “Alkaloids from the root of Isatis indigotica” (J Nat Prod, 2012).
# Active and inactive are the calls of the source. The rule behind the calls is not given here.
# Assays:
# BGC-823 = assay: Cytotoxicity against human BGC823 cells at 10 uM after 96 hrs by MTT assay; type: functional, cell-based
# HCT-8 = assay: Cytotoxicity against human HCT8 cells at 10 uM after 96 hrs by MTT assay; type: functional, cell-based
# MCF7 = assay: Cytotoxicity against human MCF7 cells at 10 uM after 96 hrs by MTT assay; type: functional, cell-based
# Human alphaherpesvirus 1 = assay: Antiviral activity against Herpes simplex virus 1 at 10 uM; type: functional, organism-based
# KETR3 = assay: Cytotoxicity against human Ketr3 cells at 10 uM after 96 hrs by MTT assay; type: functional, cell-based
# A549 = assay: Cytotoxicity against human A549 cells at 10 uM after 96 hrs by MTT assay; type: functional, cell-based
# Bel-7402 = assay: Cytotoxicity against human Bel7402 cells at 10 uM after 96 hrs by MTT assay; type: functional, cell-based
# [1] = tested on: Human immunodeficiency virus 1; assay: Antiviral activity against HIV1 infected in 293T cells cotransfected with VSV-G at 10 uM after 48 hrs by ELISA; type: functional, organism-based
# [2] = Hepatoprotective activity in rat WB-F344 cells assessed as inhibition of DL-Galactosamine-induced toxicity at 10 uM incubated for 1 hr prior to DL-Galactosamine-challenge measured after 24 hrs by MTT assay; type: functional
Structure (SMILES),Activity (BGC-823),Activity (HCT-8),Activity (MCF7),Activity (Human alphaherpesvirus 1),Activity (KETR3),Activity (A549),Activity (Bel-7402),Activity [1],inhibition at 10 µM [2]
COC(=O)c1ccccc1NC(=O)c1c[nH]c2ccccc2c1=O,inactive,inactive,inactive,inactive,inactive,inactive,inactive,inactive,
NC(=O)C[C@@]1(O)C(=O)Nc2ccccc21,inactive,inactive,inactive,inactive,inactive,inactive,inactive,inactive,
COc1cccc2c1[C@@](O)(CC(N)=O)C(=O)N2,inactive,inactive,inactive,inactive,inactive,inactive,inactive,inactive,
O=C1C[C@]2(O)c3ccccc3N3C(=O)c4ccccc4N1[C@@H]32,inactive,inactive,inactive,inactive,inactive,inactive,inactive,inactive,
COC(=O)c1cc(OC)c2c(c1-c1c(CO)cc(OC)c3c1OCO3)OCO2 [BICYCLOL],,,,,,,,,42%
O=C1O[C@H]([C@@H](O)CO)[C@@H](O)[C@@]1(O)Cc1c[nH]c2ccccc12,inactive,inactive,inactive,inactive,inactive,inactive,inactive,inactive,
O=C1CC2(O)c3ccccc3N3C(=O)c4ccccc4N1C32 (stereo not drawn),,,,,,,,,47%
O=c1cc(-c2ccc(CO)o2)c2cc(O)ccc2[nH]1,inactive,inactive,inactive,inactive,inactive,inactive,inactive,inactive,
N#CC[C@@]1(O)C(=O)Nc2ccccc21,inactive,inactive,inactive,inactive,inactive,inactive,inactive,inactive,
O=C1Nc2ccccc2/C1=C1/Nc2ccccc2C1=O,inactive,inactive,inactive,inactive,inactive,inactive,inactive,inactive,
OC[C@H]1O[C@@H](Oc2c[nH]c3ccccc23)[C@H](O)[C@@H](O)[C@@H]1O,inactive,inactive,inactive,inactive,inactive,inactive,inactive,inactive,
C[C@H]1OC2=C(NC1=O)C(=O)OCC2,inactive,inactive,inactive,inactive,inactive,inactive,inactive,inactive,
O=C1c2ccccc2-n2c1nc1ccccc1c2=O,inactive,inactive,inactive,inactive,inactive,inactive,inactive,inactive,
Nc1ccccc1C(=O)O[C@@H]1O[C@H](CO)[C@@H](O)[C@H](O)[C@H]1O,inactive,inactive,inactive,inactive,inactive,inactive,inactive,inactive,
N#CC[C@@]1(O)C(=O)Nc2cccc(O)c21,inactive,inactive,inactive,inactive,inactive,inactive,inactive,inactive,
N#C/C=C1/C(=O)Nc2cccc(O)c21,inactive,inactive,inactive,inactive,inactive,inactive,inactive,inactive,
COn1cc(CC#N)c2ccccc21,inactive,inactive,inactive,inactive,inactive,inactive,inactive,inactive,
O=C1/C(=C2\Nc3ccccc3C2=O)Nc2ccccc21,inactive,inactive,inactive,inactive,inactive,inactive,inactive,inactive,
O=Cc1c[nH]c2ccccc12,inactive,inactive,inactive,inactive,inactive,inactive,inactive,inactive,
N#CCc1c[nH]c2ccccc12,inactive,inactive,inactive,inactive,inactive,inactive,inactive,inactive,
Oc1ccc2[nH]c(O)cc2c1,inactive,inactive,inactive,inactive,inactive,inactive,inactive,inactive,
NC(=O)C[C@H]1C(=O)Nc2cccc(O)c21,inactive,inactive,inactive,inactive,inactive,inactive,inactive,inactive,
N#CCc1c[nH]c2cc(O[C@@H]3O[C@H](CO)[C@@H](O)[C@H](O)[C@H]3O)ccc12,inactive,inactive,inactive,inactive,inactive,inactive,inactive,inactive,
O=C1C[C@@]2(O)c3ccccc3N3C(=O)c4ccccc4N1[C@H]32,inactive,inactive,inactive,inactive,inactive,inactive,inactive,inactive,
